US7928098B2, “Therapeutic and/or preventive agents for a sleep disorder” (Kyowa Hakko Kirin Co., Ltd., priority 2005, dated 2011)

Row | melting point | SMILES
1 | 220 to 232 °C (dec.) | COC1CCN(CC(=O)Nc2nc(-c3ccco3)c(C(=O)c3ccccn3)s2)CC1.Cl
2 | 180 to 185 °C | CCN(CC)C(=O)C1CCCN(CC(=O)Nc2nc(-c3ccco3)c(C(=O)c3ccccn3)s2)C1.Cl (centres unmarked)
3 | 170 to 188 °C | CN1CCN(CC(=O)Nc2nc(-c3ccco3)c(C(=O)c3ccccn3)s2)CC1=O.Cl
4 | 195 to 196 °C | Cn1c(-c2sc(NC(=O)c3ccccc3)nc2-c2ccco2)cc2ccccc21 [Compound 36, N-[4-(2-Furyl)-5-(1-methylindol-2-yl)thiazol-2-yl]benzamide]
5 | 280 to 282 °C | Cn1ccc(-c2sc(NC(=O)c3ccncc3)nc2-c2ccco2)cc1=O [Compound 37, N-[4-(2-Furyl)-5-(1-methyl-2-oxo-1,2-dihydropyridin-4-yl)thiazol-2-yl]pyridine-4-carboxamide]
6 | 294 to 295 °C | Cn1cc(-c2sc(NC(=O)c3ccncc3)nc2-c2ccco2)ccc1=O [Compound 38, N-[4-(2-Furyl)-5-(1-methyl-2-oxo-1,2-dihydropyridin-5-yl)thiazol-2-yl]pyridine-4-carboxamide]
7 | 190 to 194 °C | CC(C)n1nc(-c2sc(NC(=O)c3ccncc3)nc2-c2ccco2)ccc1=O [Compound 39, N-[4-(2-Furyl)-5-(1-isopropyl-6-oxo-1,6-dihydropyridazin-3-yl)thiazol-2-yl]pyridine-4-carboxamide]
8 | 153 to 154 °C | CC(C)(O)C(=O)Nc1nc(-c2ccco2)c(C(=O)c2ccccc2)s1 [Compound 45, N-[5-Benzoyl-4-(2-furyl)thiazol-2-yl]-2-hydroxy-2-methylpropanamide]
9 | 205 to 209 °C | CN(C)Cc1cc(C(=O)Nc2nc(-c3ccco3)c(C(=O)c3ccccc3)s2)ccn1 [Compound 49, N-[5-Benzoyl-4-(2-furyl)thiazol-2-yl]-2-(dimethylaminomethyl)pyridine-4-carboxamide]
10 | 212 to 213 °C | O=C(Nc1nc(-c2ccco2)c(C(=O)c2ccccc2)s1)c1ccnc(CN2CCOCC2)c1 [Compound 52, N-[5-Benzoyl-4-(2-furyl)thiazol-2-yl]-2-(morpholinomethyl)pyridine-4-carboxamide]
11 | 145 to 147 °C | COCCN(C)c1cc(C(=O)Nc2nc(-c3ccco3)c(C(=O)c3ccccc3)s2)ccn1 [Compound 53, N-[5-Benzoyl-4-(2-furyl)thiazol-2-yl]-2-[N-(2-methoxyethyl)-N-methylamino]pyridine-4-carboxamide]
12 | 220 to 225 °C | Cn1cc(C(=O)Nc2nc(-c3ccco3)c(C(=O)c3ccccc3)s2)ccc1=O [Compound 58, N-[5-Benzoyl-4-(2-furyl)thiazol-2-yl]-1-methyl-2-oxo-1,2-dihydropyridine-5-carboxamide]
13 | 109 to 114 °C | CCn1cc(C(=O)Nc2nc(-c3ccco3)c(C(=O)c3ccccc3)s2)ccc1=O [Compound 59, N-[5-Benzoyl-4-(2-furyl)thiazol-2-yl]-1-ethyl-2-oxo-1,2-dihydropyridine-5-carboxamide]
14 | 270 to 275 °C | O=C(Nc1nc(-c2ccco2)c(C(=O)c2ccccc2)s1)c1ccc(=O)n(Cc2ccncc2)c1 [Compound 60, N-[5-Benzoyl-4-(2-furyl)thiazol-2-yl]-2-oxo-1-(pyridin-4-ylmethyl)-1,2-dihydropyridine-5-carboxamide]
15 | 225 to 248 °C | O=C(Nc1nc(-c2ccco2)c(C(=O)c2ccccc2)s1)c1ccnnc1 [Compound 61, N-[5-Benzoyl-4-(2-furyl)thiazol-2-yl]pyridazine-4-carboxamide]
16 | 216 to 217 °C | CC(=O)Nc1nc(-c2ccco2)c(C(=O)c2ccccn2)s1 [Compound 96, N-[4-(2-Furyl)-5-(pyridin-2-ylcarbonyl)thiazol-2-yl]-acetamide]
17 | 148 to 149 °C | CCCC(=O)Nc1nc(-c2ccco2)c(C(=O)c2ccccn2)s1 [Compound 97, N-[4-(2-Furyl)-5-(pyridin-2-ylcarbonyl)thiazol-2-yl]-butanamide]
18 | 186 to 187 °C | CC(C)(C)C(=O)Nc1nc(-c2ccco2)c(C(=O)c2ccccn2)s1 [Compound 98, N-[4-(2-Furyl)-5-(pyridin-2-ylcarbonyl)thiazol-2-yl]-2,2-dimethylpropanamide]
19 | 195 to 196 °C | CC1(C(=O)Nc2nc(-c3ccco3)c(C(=O)c3ccccn3)s2)CC1 [Compound 100, N-[4-(2-Furyl)-5-(pyridin-2-ylcarbonyl)thiazol-2-yl]-1-methylcyclopropanecarboxamide]
20 | 165 to 170 °C | O=C(c1ccccn1)c1sc(NC(=O)C2CCC2)nc1-c1ccco1 [Compound 101, N-[4-(2-Furyl)-5-(pyridin-2-ylcarbonyl)thiazol-2-yl]cyclobutanecarboxamide]
21 | 234 to 235 °C | O=C(c1ccccn1)c1sc(NC(=O)C2CCOCC2)nc1-c1ccco1 [Compound 102, N-[4-(2-Furyl)-5-(pyridin-2-ylcarbonyl)thiazol-2-yl]tetrahydropyran-4-carboxamide]

Row | melting point | SMILES
22 | 208 to 209 °C | O=C(c1ccccn1)c1sc(NC(=O)C2CCN(Cc3cccnc3)CC2)nc1-c1ccco1 [Compound 105, N-[4-(2-Furyl)-5-(pyridin-2-ylcarbonyl)thiazol-2-yl]-1-(pyridin-3-ylmethyl)piperidine-4-carboxamide]
23 | 240 to 241 °C | O=C(c1ccccn1)c1sc(NC(=O)C2CCN(Cc3ccncc3)CC2)nc1-c1ccco1 [Compound 106, N-[4-(2-Furyl)-5-(pyridin-2-ylcarbonyl)thiazol-2-yl]-1-(pyridin-4-ylmethyl)piperidine-4-carboxamide]
24 | 165 to 171 °C | O=C(Nc1nc(-c2ccco2)c(C(=O)c2ccccn2)s1)c1ccccc1 [Compound 107, N-[4-(2-Furyl)-5-(pyridin-2-ylcarbonyl)thiazol-2-yl]-benzamide]
25 | 205 to 208 °C | COc1ccccc1C(=O)Nc1nc(-c2ccco2)c(C(=O)c2ccccn2)s1 [Compound 108, N-[4-(2-Furyl)-5-(pyridin-2-ylcarbonyl)thiazol-2-yl]-2-methoxybenzamide]
26 | 165 to 166 °C | COc1cccc(C(=O)Nc2nc(-c3ccco3)c(C(=O)c3ccccn3)s2)c1 [Compound 109, N-[4-(2-Furyl)-5-(pyridin-2-ylcarbonyl)thiazol-2-yl]-3-methoxybenzamide]
27 | 187 to 188 °C | COc1ccc(C(=O)Nc2nc(-c3ccco3)c(C(=O)c3ccccn3)s2)cc1 [Compound 110, N-[4-(2-Furyl)-5-(pyridin-2-ylcarbonyl)thiazol-2-yl]-4-methoxybenzamide]
28 | 169 to 170 °C | COc1ccc(C(=O)Nc2nc(-c3ccco3)c(C(=O)c3ccccn3)s2)cc1OC [Compound 111, N-[4-(2-Furyl)-5-(pyridin-2-ylcarbonyl)thiazol-2-yl]-3,4-dimethoxybenzamide]
29 | 172 to 180 °C (dec.) | COc1cc(C(=O)Nc2nc(-c3ccco3)c(C(=O)c3ccccn3)s2)cc(OC)c1OC [Compound 112, N-[4-(2-Furyl)-5-(pyridin-2-ylcarbonyl)thiazol-2-yl]-3,4,5-trimethoxybenzamide]
30 | 234 to 237 °C | N#Cc1cccc(C(=O)Nc2nc(-c3ccco3)c(C(=O)c3ccccn3)s2)c1 [Compound 113, 3-Cyano-N-[4-(2-furyl)-5-(pyridin-2-ylcarbonyl)thiazol-2-yl]benzamide]
31 | 168 to 169 °C | CC(=O)c1cccc(C(=O)Nc2nc(-c3ccco3)c(C(=O)c3ccccn3)s2)c1 [Compound 115, 3-Acetyl-N-[4-(2-furyl)-5-(pyridin-2-ylcarbonyl)thiazol-2-yl]benzamide]
32 | 204 to 206 °C | CC(=O)c1ccc(C(=O)Nc2nc(-c3ccco3)c(C(=O)c3ccccn3)s2)cc1 [Compound 116, 4-Acetyl-N-[4-(2-furyl)-5-(pyridin-2-ylcarbonyl)thiazol-2-yl]benzamide]
33 | 235 to 236 °C | O=C(Nc1nc(-c2ccco2)c(C(=O)c2ccccn2)s1)c1ccc2c(c1)OCO2 [Compound 117, N-[4-(2-Furyl)-5-(pyridin-2-ylcarbonyl)thiazol-2-yl]-3,4-methylenedioxybenzamide]
34 | 189 to 191 °C | O=C(Nc1nc(-c2ccco2)c(C(=O)c2ccccn2)s1)c1ccc2c(c1)OCCO2 [Compound 118, N-[4-(2-Furyl)-5-(pyridin-2-ylcarbonyl)thiazol-2-yl]-1,4-benzodioxane-6-carboxamide]
35 | 103 to 104 °C | O=C(c1ccccn1)c1sc(NC(=O)C2COc3ccccc3O2)nc1-c1ccco1 (centres unmarked) [Compound 119, N-[4-(2-Furyl)-5-(pyridin-2-ylcarbonyl)thiazol-2-yl]-1,4-benzodioxane-2-carboxamide]
36 | 187 to 188 °C | Cc1cc(C(=O)Nc2nc(-c3ccco3)c(C(=O)c3ccccn3)s2)ccn1 [Compound 120, N-[4-(2-Furyl)-5-(pyridin-2-ylcarbonyl)thiazol-2-yl]-2-methylpyridine-4-carboxamide]
37 | 219 to 225 °C | O=C(Nc1nc(-c2ccco2)c(C(=O)c2ccccn2)s1)c1ccnc(Cl)c1 [Compound 122, 2-Chloro-N-[4-(2-furyl)-5-(pyridin-2-ylcarbonyl)thiazol-2-yl]pyridine-4-carboxamide]
38 | 206 to 207 °C | O=C(Nc1nc(-c2ccco2)c(C(=O)c2ccccn2)s1)c1ccncc1Cl [Compound 123, 3-Chloro-N-[4-(2-furyl)-5-(pyridin-2-ylcarbonyl)thiazol-2-yl]pyridine-4-carboxamide]
39 | 254 to 258 °C | O=C(Nc1nc(-c2ccco2)c(C(=O)c2ccccn2)s1)c1cc(Cl)nc(Cl)c1 [Compound 124, 2,6-Dichloro-N-[4-(2-furyl)-5-(pyridin-2-ylcarbonyl)thiazol-2-yl]pyridine-4-carboxamide]
40 | 114 to 117 °C | COCCN(C)c1cc(C(=O)Nc2nc(-c3ccco3)c(C(=O)c3ccccn3)s2)ccn1 [Compound 125, N-[4-(2-Furyl)-5-(pyridin-2-ylcarbonyl)thiazol-2-yl]-2-[N-(2-methoxyethyl)-N-methylamino]pyridine-4-carboxamide]
41 | 136 to 141 °C | O=C(Nc1nc(-c2ccco2)c(C(=O)c2ccccn2)s1)c1ccnc(N2CCCCC2)c1 [Compound 126, N-[4-(2-Furyl)-5-(pyridin-2-ylcarbonyl)thiazol-2-yl]-2-piperidinopyridine-4-carboxamide]
